Assay results published in patent US7704993B2, “Benzazepine derivatives and methods of prophylaxis or treatment of 5ht2c receptor associated diseases” (Arena Pharmaceuticals, Inc., priority 2003, dated 2010).
pIC50: −log10 of the molar value.

Columns and labels:
[1] = molecular target: T1, human 5HT2C receptor (Homo sapiens, UniProt P28335); assay: Intracellular IP3 Accumulation Assay; type: cell-based; conditions: HEK293 cells transfected with human 5HT2C receptor cDNA; read-out: 5HT2C (IC50) IP Accumulation Assay
T1 construct: expressed in transfected cells; host or cells: HEK293 cells, transient transfection with lipofectamine
T1 sequence (P28335 33-458): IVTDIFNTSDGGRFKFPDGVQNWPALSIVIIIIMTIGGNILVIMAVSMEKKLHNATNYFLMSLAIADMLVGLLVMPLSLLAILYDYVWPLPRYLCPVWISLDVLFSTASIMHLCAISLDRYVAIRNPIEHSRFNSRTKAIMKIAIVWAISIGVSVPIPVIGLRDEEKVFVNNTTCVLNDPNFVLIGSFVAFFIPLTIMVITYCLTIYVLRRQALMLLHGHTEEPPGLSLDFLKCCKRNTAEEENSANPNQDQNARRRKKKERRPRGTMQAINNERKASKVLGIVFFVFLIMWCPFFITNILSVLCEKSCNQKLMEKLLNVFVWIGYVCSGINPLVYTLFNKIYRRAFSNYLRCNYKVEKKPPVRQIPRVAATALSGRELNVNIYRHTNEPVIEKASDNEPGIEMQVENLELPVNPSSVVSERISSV
Experimental: Intracellular IP3 Accumulation Assay:
HEK293 cells were transfected in 15 cm sterile dishes with or without (control) 16 ug of human 5HT2C receptor cDNA [for example see, Saltzman, A. G., et al. Biochem. Biophys. Res. Commun. 181, 1469-1478 (1991)] using 25 ul of lipofectamine. Cells were then incubated for 3-4 hours at 37° C./5% CO2 and then transfection media was removed and replaced with 100 ul of DMEM. Cells were then plated onto 100 cm sterile dishes. The next day cells were plated into 96 well PDL microtiter plates at a density of 55 K/0.2 ml. Six hours latter, media was exchanged with [^3H]inositol (0.25 uCi/well) in inositol free DMEM and plates were incubated at 37° C./5% CO2 overnight. The next day, wells were aspirated and 200 ul of DMEM containing test compound, 10 uM pargyline, and 10 mM LiCl was added to appropriate wells. Plates were then incubated at 37° C./5% CO2 for three hours followed aspiration and by addition of fresh ice cold stop solution (1M KOH, 19 mM Na-borate, 3.8 mM EDTA) to each well. Plates were kept on ice for 5-10 min and the wells were neutralized by addition of 200 ul of fresh ice cold neutralization solution (7.5% HCl). Plates were then frozen until further processing is desired. The lysate was then transferred into 1.5 ml Eppendorf tubes and 1 ml of chloroform/methanol (1:2) was added/tube. […]

[2] = tested on: amyloid precursor protein (APPs) secretion / Aβ production; conditions: guinea pigs, repeat administration; cited from earlier work

SMILES	pIC50 [1]	amyloid precursor protein (APPs) secretion [2]	levels of Aβ production in vivo [2]
CC1CNCCc2c(Cl)cc(Cl)cc21 (racemic) [Compound 1, (R,S) 6,8-Dichloro-1-methyl-2,3,4,5-tetrahydro-1H-3-benzazepine]	7.93		
CC1CNCCc2ccc(Cl)c(F)c21 (racemic) [Compound 3, (R,S) 8-Chloro-9-fluoro-1-methyl-2,3,4,5-tetrahydro-1H-3-benzazepine]	7.61		
C[C@H](N)Cc1cccc(C(F)(F)F)c1 [dexnorfenfluramine (DEXNOR), dexnorfenfluramine]		stimulated	reducing
